Measured values from US8679765B2, “Methods and compositions for diagnosis and treatment of malignant and non-malignant gammopathies” (Ludwig Institute for Cancer Research Ltd., priority 2009, dated 2014).
Values belong to the molecule of their own block, whether it stands above or below them.

What was measured:
[1] = target: hyperphosphorylation of Paratarg; test: Inhibition experiments: LCLs cultured with kinase inhibitors, IEF and immunodetection with anti-STOML2; type: cell-based, human; settings: IEF analysis; for effect on hyperphosphorylation of paratarg: LCLs of healthy donors or patients
Description: LCLs derived from healthy donors or patients were cultured in the presence of the kinase inhibitors at the indicated concentrations. Lysates were analysed by IEF and immunodetected with anti-STOML2. A shown in this figure, hyperphosphorylation is inhibited by staurosporine, ellagic acid and wortmannin. […] Using BIM_I and Rottlerin, PKC isoform delta or zeta could be identified as responsible for hyperphosphorylation. • a) Same as b), but with other concentrations of the inhibitors.
LCLs were established by infection of PBMCs with EBV as described by Neumann et al (Blood 2005; 106:3105-13).
Stably transfected cell lines were cultured in the presence of inhibitory compounds as indicated. After 5 d cells were removed and analysed by IEF and immunodetection.
In MGUS/MM patients and their relatives hyperphosphorylated paratarg is expressed constitutively, while hyperphosphorylation of paratarg is temporary in all healthy persons and cell lines analysed. This was seen by culturing LCLs and cell lines in the presence of kinase or phosphatase inhibitors. The identification of Ser17 as the differential phosphorylation site led to the prediction of a […] (PKC) responsible for hyperphosphorylation. Culturing of LCLs and cell lines in the presence of suitable inhibitors (staurosporine, Wortmannin, Bisindolylmaleimid I) at concentrations as indicated below and followed by IEF analysis identifies the PKCzeta isoform as the active kinase (summarized in FIG. 16). This was verified by using highly specific PKCzeta pseudosubstrate as inhibitor (FIG. 16d). […] (FIG. 18).

[2] = tested on: paraproteins of serum pool #1 (MGUS/MM patients' sera); test: Serum profiling on high density protein arrays (paraprotein screening of hEx1 human fetal brain macroarray); type: binding; set-up: key: Paraprotein-binding quality/strength are ++, + and ±.; Paraprotein-binding quality/strength are ++, + and ±.; Paraprotein-binding quality/strength are ++, + and ±; settings: serum pool #1 (n=114), each serum diluted 1:10^8
Description: Screening analyses were performed on hEx1 high-density protein expression cDNA libraries, created in Hans Lehrach's laboratory at the Max Planck Institute for Molecular Genetics in Berlin (Germany) and obtained from the Reference Center of the German Human Genome Project (RZPD) (Bussow et al, 1998). These high-density filter membranes display proteins that were expressed from a modified pQE protein expression vector (Qiagen). This vector featured a hexahistidine tag, a T5 promoter and two lac operator sequences, which allowed repression during the growth phase by overexpression of the Lac repressor protein, and subsequent induction of protein expression with isopropyl-beta-D-thiogalactopyranoside (IPTG).
High density protein arrays of the protein expression set of the hEx1 library were obtained from the German Resource Center for Genome Research (RZPD) and provided by Dr. Mahlknecht from our department. They consist of 37,200 independent clones derived from a human fetal brain cDNA expression library and were used for autoantibody detection. For serum profiling, the filters were blocked in 10% (w/v) non-fat, dry milk powder in TBST (TBS, 0.1% (v/v) Tween 20) at 4° C. overnight, washed twice in TBST, and incubated for 1 h with serum pool #1 at a dilution of 1:10^8 for each serum. Following three 30-min TBST washes and subsequent incubation with the secondary antibody (goat anti-human IgG biotinylated, Dianova, diluted 1:2.500) and Strep-PDX (1:15.000) in 2% (w/v) Milk/TBST, the filters were washed three times for 30 min in TBST. This was followed by detection using Pharmacia ECL system. Positive signals were localized according to the manufacturer's protocol. Corresponding clones were obtained from RZPD.
In this study we screened a human high-density protein array containing 37,200 independent recombinant proteins derived from a human fetal brain expression library with sera obtained from patients with monoclonal gammopathy of undetermined significance (MGUS) and multiple myeloma (MM).
The signal pattern obtained from the screening with the paraprotein pools at a dilution of 1:10^8 were compared with the patterns obtained from screening with the control sera from clinically healthy donors and to background incubations. […] 5′- and 3′-tag sequencing of these clones was performed, and their sequences were used for BLAST searches against public databases at NCBI.
Using serum pool #1 (paraprotein type: 15 IgA, 88 IgG, 11 oligoclonal, n=114) we identified 14 putative paraprotein targets on the human protein filter array (FIG. 1, Tab. 1). […] Sequence searches and comparisons using the in-frame sequences identified five known proteins and one unknown gene product derived from chromosome 8.

Molecule: CN(C)CCCn1cc(C2=C(c3c[nH]c4ccccc34)C(=O)NC2=O)c2ccccc21 [BIM_I, Bisindolylmaleimid I]
- kinase identified by inhibition of paratarg hyperphosphorylation ([1]; LCLs, BIM_I at 6 μM): clearly identified PKCzeta as the kinase responsible

Molecule: CN[C@@H]1C[C@H]2O[C@@](C)([C@@H]1OC)n1c3ccccc3c3c4c(c5c6ccccc6n2c5c31)C(=O)NC4 [staurosporine]
- effect on hyperphosphorylation of paratarg [1]: inhibited

The remaining lines, values ahead:

- effect on hyperphosphorylation of paratarg [1]: inhibited
Molecule: O=c1oc2c(O)c(O)cc3c(=O)oc4c(O)c(O)cc1c4c23 [ellagic acid]

- Signal-quality (paraprotein-binding quality/strength) [2]: ++
B1: MPMGp800B22602: RZPD clone, NM_006762.1 (protein)
chain: MDPRLSTVRQTCCCFNVRIATTALAIYHVIMSVLLFIEHSVEVAHGKASCKLSQMGYLRIADLISSFLLITMLFIISLSLLIGVVKNREKYLLPFLSLQIMDYLLCLLTLLGSYIELPAYLKLASRSRASSSKFPLMTLQLLDFCLSILTLCSSYMEVPTYLNFKSMNHMNYLPSQEDMPHNQFIKMMIIFSIAFITVLIFKVYMFKCVWRCYRLIKCMNSVEEKRNSKMLQKVVLPSYEEALSLPSKTPEGGPAPPPYSEV

- Signal-quality (paraprotein-binding quality/strength) [2]: ±
B2: MPMGp800J11592: RZPD clone, NM_001294.1 (protein, UniProt O96005 2-669, looked up)
Putative lipid scramblase …: AAAQEADGARSAVVAAGGGSSGQVTSNGSIGRDPPAETQPQNPPAQPAPNAWQVIKGVLFRIFIIWAISSWFRRGPAPQDQAGPGGAPRVASRNLFPKDTLMNLHVYISEHEHFTDFNATSALFWEQHDLVYGDWTSGENSDGCYEHFAELDIPQSVQQNGSIYIHVYFTKSGFHPDPRQKALYRRLATVHMSRMINKYKRRRFQKTKNLLTGETEADPEMIKRAEDYGPVEVISHWHPNITINIVDDHTPWVKGSVPPPLDQYVKFDAVSGDYYPIIYFNDYWNLQKDYYPINESLASLPLRVSFCPLSLWRWQLYAAQSTKSPWNFLGDELYEQSDEEQDSVKVALLETNPYLLALTIIVSIVHSVFEFLAFKNDIQFWNSRQSLEGLSVRSVFFGVFQSFVVLLYILDNETNFVVQVSVFIGVLIDLWKITKVMDVRLDREHRVAGIFPRLSFKDKSTYIESSTKVYDDMAFRYLSWILFPLLGCYAVYSLLYLEHKGWYSWVLSMLYGFLLTFGFITMTPQLFINYKLKSVAHLPWRMLTYKALNTFIDDLFAFVIKMPVMYRIGCLRDDVVFFIYLYQRWIYRVDPTRVNEFGMSGEDPTAAAPVAEVPTAAGALTPTPAPTTTTATREEASTSLPTKPTQGASSASEPQEAPPKPAEDKKKD
